In patent US20240238242A1, “EGCG buccal tablet and use thereof” (priority 2023, published 2024):

Columns and labels:
SARS-CoV-2/C57MA14 = tested on: SARS-CoV-2/C57MA14; parameters: species or system BALB/c mice; settings: mouse, in vivo
[1] = tested on: Influenza B virus (B/Lee); experiment: Inactivation efficiency against influenza B virus B/Lee strain (residual TCID50 on MDCK cells); type: cell-based; settings: for average inactivation efficiency against virus: B/Lee virus, two experiments

O=C(O[C@@H]1Cc2c(O)cc(O)cc2O[C@@H]1c1cc(O)c(O)c(O)c1)c1cc(O)c(O)c(O)c1 [EGCG, Epigallocatechin gallate]
mice protected from death caused by lethal dose infection (SARS-CoV-2/C57MA14): 60%
viral nucleic acid loads in lungs and turbinates (SARS-CoV-2/C57MA14): significantly reduce
CPE test (virus replication in the cell wells) ([1]; 0.2 mM EGCG + B/Lee virus, 1 minute, first experiment, dilution factor 10^1, wells 1-10): +
CPE test (virus replication in the cell wells) ([1]; 0.2 mM EGCG + B/Lee virus, 1 minute, first experiment, dilution factor 10^2, wells 1-10): +
CPE test (virus replication in the cell wells) ([1]; 0.2 mM EGCG + B/Lee virus, 1 minute, first experiment, dilution factor 10^3, wells 1-10): +
CPE test (virus replication in the cell wells) ([1]; 0.2 mM EGCG + B/Lee virus, 1 minute, first experiment, dilution factor 10^4, wells 1-10): +
CPE test (virus replication in the cell wells) ([1]; 0.2 mM EGCG + B/Lee virus, 1 minute, first experiment, dilution factor 10^5, wells 1-10): − and +
CPE test (virus replication in the cell wells) ([1]; 0.2 mM EGCG + B/Lee virus, 1 minute, first experiment, dilution factor 10^6, wells 1-10): − and +
CPE test (virus replication in the cell wells) ([1]; 0.2 mM EGCG + B/Lee virus, 1 minute, first experiment, dilution factor 10^7, wells 1-10): −
CPE test (virus replication in the cell wells) ([1]; 0.2 mM EGCG + B/Lee virus, 1 minute, first experiment, dilution factor 10^8, wells 1-10): −
CPE test (virus replication in the cell wells) ([1]; 0.2 mM EGCG + B/Lee virus, 1 minute, second experiment, dilution factor 10^1, wells 1-10): +
CPE test (virus replication in the cell wells) ([1]; 0.2 mM EGCG + B/Lee virus, 1 minute, second experiment, dilution factor 10^2, wells 1-10): +
CPE test (virus replication in the cell wells) ([1]; 0.2 mM EGCG + B/Lee virus, 1 minute, second experiment, dilution factor 10^3, wells 1-10): +
CPE test (virus replication in the cell wells) ([1]; 0.2 mM EGCG + B/Lee virus, 1 minute, second experiment, dilution factor 10^4, wells 1-10): +
CPE test (virus replication in the cell wells) ([1]; 0.2 mM EGCG + B/Lee virus, 1 minute, second experiment, dilution factor 10^5, wells 1-10): +
CPE test (virus replication in the cell wells) ([1]; 0.2 mM EGCG + B/Lee virus, 1 minute, second experiment, dilution factor 10^6, wells 1-10): − and +
CPE test (virus replication in the cell wells) ([1]; 0.2 mM EGCG + B/Lee virus, 1 minute, second experiment, dilution factor 10^7, wells 1-10): −
CPE test (virus replication in the cell wells) ([1]; 0.2 mM EGCG + B/Lee virus, 1 minute, second experiment, dilution factor 10^8, wells 1-10): −
average inactivation efficiency against virus ([1]; 0.2 mM EGCG, 1 minute): 18.45%
CPE test (virus replication in the cell wells) ([1]; 1 mM EGCG + B/Lee virus, 1 minute, first experiment, dilution factor 10^3, wells 1-10): +
CPE test (virus replication in the cell wells) ([1]; 1 mM EGCG + B/Lee virus, 1 minute, first experiment, dilution factor 10^4, wells 1-10): +
CPE test (virus replication in the cell wells) ([1]; 1 mM EGCG + B/Lee virus, 1 minute, first experiment, dilution factor 10^5, wells 1-10): +
CPE test (virus replication in the cell wells) ([1]; 1 mM EGCG + B/Lee virus, 1 minute, first experiment, dilution factor 10^6, wells 1-10): −
CPE test (virus replication in the cell wells) ([1]; 1 mM EGCG + B/Lee virus, 1 minute, first experiment, dilution factor 10^7, wells 1-10): −
CPE test (virus replication in the cell wells) ([1]; 1 mM EGCG + B/Lee virus, 1 minute, first experiment, dilution factor 10^8, wells 1-10): −
CPE test (virus replication in the cell wells) ([1]; 1 mM EGCG + B/Lee virus, 1 minute, second experiment, dilution factor 10^3, wells 1-10): +
CPE test (virus replication in the cell wells) ([1]; 1 mM EGCG + B/Lee virus, 1 minute, second experiment, dilution factor 10^4, wells 1-10): +
CPE test (virus replication in the cell wells) ([1]; 1 mM EGCG + B/Lee virus, 1 minute, second experiment, dilution factor 10^5, wells 1-10): +
CPE test (virus replication in the cell wells) ([1]; 1 mM EGCG + B/Lee virus, 1 minute, second experiment, dilution factor 10^6, wells 1-10): − and +
CPE test (virus replication in the cell wells) ([1]; 1 mM EGCG + B/Lee virus, 1 minute, second experiment, dilution factor 10^7, wells 1-10): −
CPE test (virus replication in the cell wells) ([1]; 1 mM EGCG + B/Lee virus, 1 minute, second experiment, dilution factor 10^8, wells 1-10): −
CPE test (virus replication in the cell wells) ([1]; 1 mM EGCG + B/Lee virus, 5 minute, first experiment, dilution factor 10^2, wells 1-10): +
CPE test (virus replication in the cell wells) ([1]; 1 mM EGCG + B/Lee virus, 5 minute, first experiment, dilution factor 10^3, wells 1-10): +
CPE test (virus replication in the cell wells) ([1]; 1 mM EGCG + B/Lee virus, 5 minute, first experiment, dilution factor 10^4, wells 1-10): +
CPE test (virus replication in the cell wells) ([1]; 1 mM EGCG + B/Lee virus, 5 minute, first experiment, dilution factor 10^5, wells 1-10): +
CPE test (virus replication in the cell wells) ([1]; 1 mM EGCG + B/Lee virus, 5 minute, first experiment, dilution factor 10^6, wells 1-10): −
CPE test (virus replication in the cell wells) ([1]; 1 mM EGCG + B/Lee virus, 5 minute, first experiment, dilution factor 10^7, wells 1-10): −
CPE test (virus replication in the cell wells) ([1]; 1 mM EGCG + B/Lee virus, 5 minute, first experiment, dilution factor 10^8, wells 1-10): −
CPE test per cell well ([1]; 1 mM EGCG + B/Lee virus, 5 minute, second experiment, dilution factor 10^1, wells 1-10): +
CPE test per cell well ([1]; 1 mM EGCG + B/Lee virus, 5 minute, second experiment, dilution factor 10^2, wells 1-10): +
CPE test per cell well ([1]; 1 mM EGCG + B/Lee virus, 5 minute, second experiment, dilution factor 10^3, wells 1-10): +
CPE test per cell well ([1]; 1 mM EGCG + B/Lee virus, 5 minute, second experiment, dilution factor 10^4, wells 1-10): +
CPE test per cell well ([1]; 1 mM EGCG + B/Lee virus, 5 minute, second experiment, dilution factor 10^5, wells 1-10): + and −
CPE test per cell well ([1]; 1 mM EGCG + B/Lee virus, 5 minute, second experiment, dilution factor 10^6, wells 1-10): −
CPE test per cell well ([1]; 1 mM EGCG + B/Lee virus, 5 minute, second experiment, dilution factor 10^7, wells 1-10): −
CPE test per cell well ([1]; 1 mM EGCG + B/Lee virus, 5 minute, second experiment, dilution factor 10^8, wells 1-10): −
average inactivation efficiency against virus ([1]; 1 mM EGCG, 1 minute): 28.74%
average inactivation efficiency against virus ([1]; 1 mM EGCG, 5 minutes): 18.45%
CPE test (virus replication in the cell wells) ([1]; 5 mM EGCG + B/Lee virus, 1 minute, first experiment, dilution factor 10^4, wells 1-10): +
CPE test (virus replication in the cell wells) ([1]; 5 mM EGCG + B/Lee virus, 1 minute, first experiment, dilution factor 10^5, wells 1-10): +
CPE test (virus replication in the cell wells) ([1]; 5 mM EGCG + B/Lee virus, 1 minute, first experiment, dilution factor 10^6, wells 1-10): −
CPE test (virus replication in the cell wells) ([1]; 5 mM EGCG + B/Lee virus, 1 minute, first experiment, dilution factor 10^7, wells 1-10): −
CPE test (virus replication in the cell wells) ([1]; 5 mM EGCG + B/Lee virus, 1 minute, first experiment, dilution factor 10^8, wells 1-10): −
CPE test (virus replication in the cell wells) ([1]; 5 mM EGCG + B/Lee virus, 1 minute, second experiment, dilution factor 10^4, wells 1-10): +
CPE test (virus replication in the cell wells) ([1]; 5 mM EGCG + B/Lee virus, 1 minute, second experiment, dilution factor 10^5, wells 1-10): − and +
CPE test (virus replication in the cell wells) ([1]; 5 mM EGCG + B/Lee virus, 1 minute, second experiment, dilution factor 10^6, wells 1-10): −
CPE test (virus replication in the cell wells) ([1]; 5 mM EGCG + B/Lee virus, 1 minute, second experiment, dilution factor 10^7, wells 1-10): −
CPE test (virus replication in the cell wells) ([1]; 5 mM EGCG + B/Lee virus, 1 minute, second experiment, dilution factor 10^8, wells 1-10): −
CPE test (virus replication in the cell wells) ([1]; 5 mM EGCG + B/Lee virus, 5 minute, first experiment, dilution factor 10^4, wells 1-10): + and −
CPE test (virus replication in the cell wells) ([1]; 5 mM EGCG + B/Lee virus, 5 minute, first experiment, dilution factor 10^5, wells 1-10): + and −
CPE test (virus replication in the cell wells) ([1]; 5 mM EGCG + B/Lee virus, 5 minute, first experiment, dilution factor 10^6, wells 1-10): − and +
CPE test (virus replication in the cell wells) ([1]; 5 mM EGCG + B/Lee virus, 5 minute, first experiment, dilution factor 10^7, wells 1-10): − and +
CPE test (virus replication in the cell wells) ([1]; 5 mM EGCG + B/Lee virus, 5 minute, first experiment, dilution factor 10^8, wells 1-10): −
CPE test per cell well ([1]; 5 mM EGCG + B/Lee virus, 5 minute, second experiment, dilution factor 10^4, wells 1-10): +
CPE test per cell well ([1]; 5 mM EGCG + B/Lee virus, 5 minute, second experiment, dilution factor 10^5, wells 1-10): − and +
CPE test per cell well ([1]; 5 mM EGCG + B/Lee virus, 5 minute, second experiment, dilution factor 10^6, wells 1-10): −
CPE test per cell well ([1]; 5 mM EGCG + B/Lee virus, 5 minute, second experiment, dilution factor 10^7, wells 1-10): −
CPE test per cell well ([1]; 5 mM EGCG + B/Lee virus, 5 minute, second experiment, dilution factor 10^8, wells 1-10): −
average inactivation efficiency against virus ([1]; 5 mM EGCG, 1 minute): 52.43%
average inactivation efficiency against virus ([1]; 5 mM EGCG, 5 minutes): 36.90%
